According to patent publication US12269800B2, “Delivery of therapeutic alkaloid compounds” (priority 2021, dated 2025):
Read-outs that look alike come from different tables or passages of the source.

Legend:
[1] = Plasma Stability Assay of Example A3, mouse plasma; details: % of prodrug compound remaining, 37° C.
[2] = Plasma Stability Assay of Example A3, human plasma; details: % of prodrug compound remaining, 37° C.
[3] = 5 µM
Protocol: 50 uL aliquots of positive controls and test compounds spiked into rat or human plasma (n=2) were added to a pre-warmed plate (37° C.) and shaken at 50 rpm. At each respective time point, the reaction was stopped by adding 500 μL of acetonitrile containing internal standards (100 nM aprozolam, 200 nM caffeine, 100 nM tolbutamide). All samples were vortexed for 10 minutes, followed by centrifugation at 3,220 g for 30 minutes to precipitate proteins. 100 μL of the supernatant is transferred to a new plate. The supernatant will be diluted with ultrapure water according to the LC-MS signal response and peak shape.

[4] = 5 µM; remark: listed apart in the source

| SMILES | Mouse Plasma Prodrug (%) ([1]; 0.0 min) | Mouse Plasma Prodrug (%) ([1]; 15 min) | Mouse Plasma Prodrug (%) ([1]; 60 min) | Mouse Plasma Prodrug (%) ([1]; 120 min) | Mouse Plasma Prodrug (%) ([1]; 240 min) | Human Plasma Prodrug (%) ([2]; 0.0 min) | Mouse Plasma Prodrug (%) ([1]; 30 min) | Rat Plasma Prodrug (%) ([3]; 0 min) | Rat Plasma Prodrug (%) ([3]; 10 min) | Rat Plasma Prodrug (%) ([3]; 30 min) | Rat Plasma Prodrug (%) ([3]; 60 min) | Rat Plasma Prodrug (%) ([3]; 120 min) | Rat Plasma Prodrug (%) ([3]; 240 min) | Human Plasma Prodrug (%) ([4]; 0 min) | Human Plasma Prodrug (%) ([4]; 10 min) | Human Plasma Prodrug (%) ([4]; 30 min) | Human Plasma Prodrug (%) ([4]; 60 min) | Human Plasma Prodrug (%) ([4]; 120 min) | Human Plasma Prodrug (%) ([4]; 240 min) | further results |
| --- | --- | --- | --- | --- | --- | --- | --- | --- | --- | --- | --- | --- | --- | --- | --- | --- | --- | --- | --- | --- |
| COc1ccc([C@@]23CCC(OC(=O)C(c4ccccc4)c4ccccc4)=C[C@@H]2N(C)CC3)cc1OC [Compound 306, [(3aS,7aS)-3a-(3,4-dimethoxyphenyl)-1-methyl-3,4,5,7a-tetrahydro-2H-indol-6-yl] 2,2-diphenylacetate] | 100.0 | 6.2 | 1.6 | 0.4 | 0.1 | 100.0 |  |  |  |  |  |  |  |  |  |  |  |  |  |  |
| COc1ccc([C@@]23CCC(OC(=O)c4cccc(N(C)C)c4)=C[C@@H]2N(C)CC3)cc1OC [Compound 307, [(3aS,7aS)-3a-(3,4-dimethoxyphenyl)-1-methyl-3,4,5,7a-tetrahydro-2H-indol-6-yl] 3-(dimethylamino)benzoate] | 100.0 |  | 0.1 | 0.0 | 0.0 | 100.0 | 3.8 |  |  |  |  |  |  |  |  |  |  |  |  | Human Plasma Prodrug (%) ([2]; 60 min): 83.0% |
| COc1ccc([C@@]23CCC(OC(=O)C(C)(C)C)=C[C@@H]2N(C)CC3)cc1OC [Compound 309, [(3aS,7aS)-3a-(3,4-dimethoxyphenyl)-1-methyl-3,4,5,7a-tetrahydro-2H-indol-6-yl] 2,2-dimethylpropanoate] | 100.0 |  | 8.2 | 0.0 | 0.0 | 100.0 |  |  |  |  |  |  |  |  |  |  |  |  |  | Human Plasma Prodrug (%) ([2]; 120 min): 3.6%; Human Plasma Prodrug (%) ([2]; 240 min): 2.0% |
| COc1ccc([C@@]23CCC(OC(=O)C4CC4)=C[C@@H]2N(C)CC3)cc1OC [Compound 312, [(3aS,7aS)-3a-(3,4-dimethoxyphenyl)-1-methyl-3,4,5,7a-tetrahydro-2H-indol-6-yl] cyclopropanecarboxylate] | 100.0 | 3.5 | 2.2 | 2.8 | 0.8 | 100.0 | 1.6 |  |  |  |  |  |  |  |  |  |  |  |  | Human Plasma Prodrug (%) ([2]; 15 min): 8.1%; Human Plasma Prodrug (%) ([2]; 30 min): 6.2% |
| C/C=C(\C)C(=O)OC1=C[C@@H]2N(C)CC[C@]2(c2ccc(OC)c(OC)c2)CC1 [Compound 313, [(3aS,7aS)-3a-(3,4-dimethoxyphenyl)-1-methyl-3,4,5,7a-tetrahydro-2H-indol-6-yl](E)-2-methylbut-2-enoate] | 100.0 | 2.1 | 0.1 | 0.0 | 0.0 | 100.0 | 0.7 |  |  |  |  |  |  |  |  |  |  |  |  | Human Plasma Prodrug (%) ([2]; 120 min): 2.4%; Human Plasma Prodrug (%) ([2]; 240 min): 0.4% |
| C=C(C)C(=O)OC1=C[C@@H]2N(C)CC[C@]2(c2ccc(OC)c(OC)c2)CC1 [Compound 315, [(3aS,7aS)-3a-(3,4-dimethoxyphenyl)-1-methyl-3,4,5,7a-tetrahydro-2H-indol-6-yl]-2-methylprop-2-enoate] | 100.0 | 5.3 | 1.3 | 2.0 | 1.9 | 100.0 | 2.4 |  |  |  |  |  |  |  |  |  |  |  |  | Human Plasma Prodrug (%) ([2]; 30 min): 2.3%; Human Plasma Prodrug (%) ([2]; 60 min): 0.5%; Human Plasma Prodrug (%) ([2]; 120 min): 0.2%; Human Plasma Prodrug (%) ([2]; 240 min): 0.0% |
| CCCC(CCC)C(=O)OC1=C[C@@H]2N(C)CC[C@]2(c2ccc(OC)c(OC)c2)CC1 [Compound 427, (3aS,7aS)-3a-(3,4-dimethoxyphenyl)-1-methyl-2,3,3a,4,5,7a-hexahydro-1H-indol-6-yl 2-propylpentanoate] |  |  |  |  |  |  |  | 100.0 | 93.6 | 73.4 | 43.9 | 16.0 | 2.3 | 100.0 | >99 | 96.6 | 96.9 | 95.5 | 91.2 |  |
| CCC(C)(C)C(=O)OC1=C[C@@H]2N(C)CC[C@]2(c2ccc(OC)c(OC)c2)CC1 [Compound 428, (3aS,7aS)-3a-(3,4-dimethoxyphenyl)-1-methyl-2,3,3a,4,5,7a-hexahydro-1H-indol-6-yl 2,2-dimethylbutanoate] |  |  |  |  |  |  |  | 100.0 | 90.3 | 69.9 | 41.7 | 18.1 | 3.9 | 100.0 | 82.9 | 74.5 | 69.1 | 56.8 | 46.0 |  |
| CCCC(C)(C)C(=O)OC1=C[C@@H]2N(C)CC[C@]2(c2ccc(OC)c(OC)c2)CC1 [Compound 429, (3aS,7aS)-3a-(3,4-dimethoxyphenyl)-1-methyl-2,3,3a,4,5,7a-hexahydro-1H-indol-6-yl 2,2-dimethylpentanoate] |  |  |  |  |  |  |  | 100.0 | 90.4 | 83.9 | 71.9 | 50.8 | 26.2 | 100.0 | >99 | 96.3 | 95.3 | 91.8 | 84.6 |  |
| CCC(C)(CC)C(=O)OC1=C[C@@H]2N(C)CC[C@]2(c2ccc(OC)c(OC)c2)CC1 [Compound 430, (3aS,7aS)-3a-(3,4-dimethoxyphenyl)-1-methyl-2,3,3a,4,5,7a-hexahydro-1H-indol-6-yl 2-ethyl-2-methylbutanoate] |  |  |  |  |  |  |  | 100.0 | 98.2 | 98.3 | 97.1 | 94.1 | 92.8 | 100.0 | >99 | >99 | >99 | >99 | 95.9 |  |
| COc1ccc([C@@]23CCC(OC(=O)CC(C)(C)C)=C[C@@H]2N(C)CC3)cc1OC [Compound 431, (3aS,7aS)-3a-(3,4-dimethoxyphenyl)-1-methyl-2,3,3a,4,5,7a-hexahydro-1H-indol-6-yl 3,3-dimethylbutanoate] |  |  |  |  |  |  |  | 100.0 | 74.5 | 45.7 | 16.5 | 2.3 | 0.2 | 100.0 | 82.1 | 69.0 | 62.8 | 52.6 | 37.4 |  |
